Experimental data: US9637529B2, “Medicament for atrophy treatment or increasing cell growth” (SIMU TRADE CONSULTING GMBH & CO. LEASING KG, priority 2012, dated 2017)
Entries after “also recorded” stand apart in the source; their conditions may differ.

Key:
[1] = system: human T-cell line (Jurkat); assay: H2O2-induced apoptosis, trypan-blue staining, Jurkat; assay type: cell-based; settings: 200 mM H2O2, SERF2 5 μg/ml, 6 hours, serum-free
Experimental: Experiments were performed in 6-well plates containing 5 ml cell culture medium (serum-free) per well and were seeded at a cell density of 1*10^6 cells/well and cultured overnight. On the next day 200 mM H2O2 (red bar) or 200 mM H2O2 and SERF2 (green bar; 5 μg/ml) was added to cultures. After 6 hours of incubation, the adherent cells were harvested, washed 3 times in PBS and dead cells were detected by trypan-blue staining using light microscopy. Shown is the percentage of dead cells.
Trypan Blue staining is one of the most commonly used methods to determine the cell viability using light microscopy. Trypan blue can only stain cells if their membrane is damaged.
The question was asked whether SERF2 has an effect on growth factor deprivation- or stress-induced apoptosis. The experimental protocol included addition of Hydrogen peroxide (H2O2), which is known to cause cellular stress and consequently apoptotic death in doses below 200 μM (Cox A., Carcinogenesis. 2007, Vol. 28, 10). Furthermore apoptosis was induced by deprivation of granulocyte macrophage colony-stimulating factor (GM-CSF) in cultures of TF-1 cells. These cells are dependent on the presence of a growth factor which is absolutely necessary for growth and differentiation of TF-1 cells.

zebrafish [2] = assay: Zebrafish TUNEL in situ staining of apoptotic cells; assay type: in vivo; settings: gill, skeletal muscle and tail sections, versus untreated animals
Experimental: FIG. 18: Apoptotic cells detected by TUNEL technology in gill, skeletal muscle and tail sections.
(§1) SERF2 was administered by a) injection of the native protein into the yolk sac of 3 day post fertilization (dpf) animals and freshly fertilized eggs (2-8 cell stage) in various protein concentrations or chronic incubation with the native protein to supply it via diffusion. For in deep analysis of angiogenic effects flk-1 transgenic animals with gfp (green fluorescent protein) labelled endothelium were used. For all other experiments wildtype (wdt) animals were used.
Apoptotic. cells were detected by TUNEL technology using in situ Cell Death Detection Kit, Fluorescein (Roche Applied Science, Mannheim, Germany) according to the manufacturer's instructions. Statistical Analysis. The acquired data statistically analyzed by using a two tailed students t-Test (Microsoft Excel) and significance was accepted when P<0.05. Data are presented as mean±S.E.M.

TF-1 cells = assay: Growth factor deprivation apoptosis, caspase-3 ELISA, TF-1; assay type: cell-based, human; settings: serum-free medium with or without GM-CSF, SERF2 5 μg/ml, 9.5 hours
Experimental: TF-1 cells were incubated under different culture conditions: FCS+GM-CSF (dark blue), serum-free medium+GM-CSF (5 μg/ml; pale blue), serum-free medium+GM-CSF+SERF2 (5 μg/ml; lime), serum-free medium+SERF2 (green) and serum-free medium only (red). After 9.5 hours culture supernatants were analyzed by an ELISA-technique for caspase-3 expression levels. Results are expressed as pNA in pmol/μl
Caspase-3 is a member of the cysteine aspartic acid-specific protease family and is a marker of an early event in apoptosis. Caspase-3 expression was measured using a commercially available kit. Briefly, culture supernatants of cells undergoing apoptosis after different treatments were harvested and incubated with a substrate labeled with p-nitroaniline (pNA), which produces a yellow color when it is cleaved by caspase-3. The amount of produced yellow color is proportional to the caspase-3 activity, which can be determined by an ELISA reader at 405 nm (Promega). The assay was performed essentially as described by the manufacturer (instruction manual of CaspACE™ Assay System, Promega).
The question was asked whether SERF2 has an effect on growth factor deprivation- or stress-induced apoptosis. The experimental protocol included addition of Hydrogen peroxide (H2O2), which is known to cause cellular stress and consequently apoptotic death in doses below 200 μM (Cox A., Carcinogenesis. 2007, Vol. 28, 10). […]

zebrafish [3] = assay: Zebrafish heart size / heart volume; assay type: in vivo; settings: 7 dpf zebrafish incubated with different doses of SERF2
Experimental: FIG. 13: a: Changes in heart size in 7 dpf old zebrafish incubated with different doses of SERF2. b: Changes in heart volume in 7 dpf old zebrafish incubated in different concentrations of SERF2 and erythropoietin (EPO). Significant differences to control animals are indicated by asterisks.
as §1
Heart size was determined by measurement of end diastolic dimensions and calculation of end diastolic volume as described by Schwerte et al. (Schwerte et al. The Journal of Experimental Biology. 2003; 206 (Pt 8):1299-1307).

[4] = system: chorionallantoic membrane (CAM); assay: Hen's Egg Test - Chorionallantoic Membrane (HET-CAM) angiogenesis assay; assay type: in vivo, chicken; settings: SERF2 3 μg/CAM, VEGF-A 0.5 μg/CAM; treatment on embryonic day 6 and 7; microscopic evaluation, manual count
Experimental: FIG. 12: Proangiogenic effect of SERF2 in CAM assays. To evaluate the pro-angiogenic properties of SERF2, 3 μg of A: PBS and C: SERF2 was applied per CAM. B: VEGF-A (0.5 μg/CAM) was used as positive control, PBS served as a negative control. […] Treatment was performed on embryonic day 6 and 7. Angiogenic responses were evaluated microscopically. Pictures shown were taken for documentation on day 6.
Fertilized specific-pathogen free eggs (White Leghorn) were obtained from BAXTER Biosciences (Vienna, Austria) on embryonic day 5 (E5). Eggs were disinfected on the surface using a towel soaked with Microzid (Schlilke, Austria). A tiny hole was drilled and 3 ml albumen were removed using a syringe equipped with a 18 G needle. Subsequently, the hole was covered with paraffin. To open the eggs, another hole was drilled on top. The egg shell was removed in this area using a pair of tweezers. […] Angiogenic potential of tested peptides was evaluated microscopically at the end of the experiment.
The HET-CAM assay enables the assessment of the angiogenic potential of substrates or cells. A suitable VEGF concentration was determined, which can be used as positive control. […] Angiogenic response was determined on Ell by light microscopy.
To evaluate the pro-angiogenic properties of SERF2, the protein was subjected to Het-CAM assay. […] Angiogenic responses were evaluated microscopically on E7 as well as on E8. […]

Substance: SERF2: Small EDRK-rich factor 2, mature protein of 59 amino acids (SEQ ID NO: 1) (MTRGNQRELARQKNMKKQSDSVKGKRRDDGLSAAARKQRDSEIMQQKQKKANEKKEEPK; homo sapiens)
- protection from H2O2-induced apoptosis (percentage of dead cells), Jurkat [1]: markedly reduced apoptosis; also recorded: protects a human T-cell line (Jurkat) from H2O2-induced apoptosis
- number of apoptotic cells (TUNEL) (zebrafish [2]): reduced number of apoptotic cells; also recorded: lower in different regions as compared to untreated animals
- apoptosis (caspase-3 levels) in TF-1 cells (TF-1 cells): markedly reduced apoptosis; also recorded: compensates for FCS and alleviates apoptosis
- change in heart volume (zebrafish [3]): significant increase of the animals heart volume
- angiogenic response (newly formed vessels) in CAM [4]: pro-angiogenic response; also recorded: New vessels were identified
